Measurements taken from patent US8247211B2, “Glycopeptide antibiotics” (American Cyanamid Company, priority 2001, dated 2012).
Values after ≈ are worked out from the molar mass of the structure shown.

Tests used:
[1] = test system: Enterococcus sp.; test: In vitro antibacterial evaluation: minimum inhibitory concentration (MIC), broth dilution method; type: cell-based; details: broth dilution, 5×10^5 CFU/mL, 18 hours at 35° C.
Method in brief: (§1)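 Using Muller-Hinton II […] and an inoculum of 5×10^5 CFU/mL, antibiotic dilutions from 64 down to 0.06 μg/mL were tested following NCCLS M7-A2. The MIC is the lowest concentration inhibiting growth, including in methicillin-, penicillin- or vancomycin-resistant clinical isolates.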

[2] = test system: Escherichia coli; test: as above; type: cell-based; details: 5×10^5 CFU/mL, 18 hours at 35° C.
Method in brief: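 An MIC is reported for each organism as the least concentration giving inhibition, using broth dilution over 64-0.06 μg/mL with a 5×10^5 CFU/mL inoculum.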

[3] = test system: Streptococcus sp.; test: as above; type: cell-based; details: broth dilution, 5×10^5 CFU/mL, 18 hours at 35° C.
Method in brief: as §1

[4] = test system: Staphylococcus sp.; test: as above; type: cell-based; details: for MIC Staphylococcus aureus (ATCC 29213): strain ATCC 29213; for MIC Staphylococcus aureus (GC 1131): strain GC 1131; for MIC Staphylococcus aureus (GC 3051): strain GC 3051; for MIC Staphylococcus aureus (GC 3053): strain GC 3053; for MIC Staphylococcus aureus (GC 4541): strain GC 4541; for MIC Staphylococcus aureus (GC 4542): strain GC 4542; for MIC Staphylococcus aureus-SMITH (GC 4543): strain GC 4543; for MIC Staphylococcus aureus (GC 4544): strain GC 4544; for MIC Staphylococcus aureus (GC 4545): strain GC 4545; for MIC Staphylococcus haemolyticus (GC 4546): strain GC 4546; for MIC Coagulase Negative Staphylococcus (GC 4547): strain GC 4547; for MIC Coagulase Negative Staphylococcus (GC 4548): strain GC 4548; for MIC Coagulase Negative Staphylococcus (GC 4549): strain GC 4549; for MIC Coagulase Negative Staphylococcus (GC 4551): strain GC 4551; for MIC Coagulase Negative Staphylococcus (GC 6257): strain GC 6257
Method in brief: as §1

[5] = test system: Enterococcus faecalis (GC 6189), vancomycin resistant strain; test: Acute lethal infection in mice (ED50); type: in vivo; details: female CD-1 mice, intraperitoneal challenge, intravenous dose 30 min. after infection, 7 day survival ratios
Method in brief: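 Lethal systemic infection model: female CD-1 mice, 20 ± 1-2 g, intraperitoneal challenge. Single intravenous treatment 30 min after infection; 7-day survival, pooled from 3 tests, gives ED50.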

[6] = broth dilution, 18 hours at 35° C.

CCC(CC)C1OCC2OC(OC3C(CO)OC(Oc4ccc(CC5NC(=O)C(C(C)c6ccccc6)NC(=O)CNC(=O)C(CO)NC(=O)C(C(O)C6CNC(=N)N6C6OC(CO)C(O)C(O)C6O)NC(=O)C(C(O)C6CNC(=N)N6)NC5=O)cc4)C(O)C3O)C(O)C(O)C2O1 (stereo not drawn) [Example 116, Cyclo[glycyl-β-methylphenylalanyl-O-[4-O-[4,6-O-(2-ethylbutylidene)hexopyranosyl]-hexopyranosyl]tyrosyl-3-(2-iminoimidazolidin-4-yl)seryl-3-(3-hexopyranosyl-2-iminoimidazolidin-4-yl)serylseryl]]
MIC Enterococccus avium (GC 4558) [1]: 2 mg/L (≈ 1.45 µM) | MIC Enterococccus faecalis (ATCC 29212) [1]: 2 mg/L (≈ 1.45 µM) | MIC Enterococccus faecalis (GC 2691) [1]: 2 mg/L (≈ 1.45 µM) | MIC Enterococccus faecalis (GC 3059) [1]: 2 mg/L (≈ 1.45 µM) | MIC Enterococccus faecalis (GC 4552) [1]: 2 mg/L (≈ 1.45 µM) | MIC Enterococccus faecalis (GC 4553) [1]: 2 mg/L (≈ 1.45 µM) | MIC Enterococccus faecalis (GC 4554) [1]: 2 mg/L (≈ 1.45 µM) | MIC Enterococccus faecalis (GC 6189) [1]: 2 mg/L (≈ 1.45 µM) | MIC Enterococccus faecium (GC 2243) [1]: 2 mg/L (≈ 1.45 µM) | MIC Enterococccus faecium (GC 4556) [1]: 2 mg/L (≈ 1.45 µM) | MIC Enterococccus faecium (GC 4557) [1]: 2 mg/L (≈ 1.45 µM) | MIC Enterococcus faecalis (GC 2242) [1]: 2 mg/L (≈ 1.45 µM) | MIC Escherichia coli (ATCC 25922) [2]: 32 mg/L (≈ 23.2 µM) | MIC Escherichia coli (GC 4559) [2]: 64 mg/L (≈ 46.5 µM) | MIC Escherichia coli (GC 4560) [2]: 1 mg/L (≈ 0.726 µM) | MIC Streptococcus agalactiae (GC 4564) [3]: 0.25 mg/L (≈ 0.181 µM) | MIC Streptococcus pneumoniae (GC 1894) [3]: <0.06 mg/L | MIC Streptococcus pneumoniae (GC 4565) [3]: <0.06 mg/L | MIC Streptococcus pneumonine (ATCC 6301) [3]: <0.06 mg/L | MIC Streptococcus pyogenes (GC 4563) [3]: 0.25 mg/L (≈ 0.181 µM) | MIC Staphylococcus aureus (ATCC 29213) [4]: 1 mg/L (≈ 0.726 µM) | MIC Staphylococcus aureus (ATCC 29213) [4, 6]: 1 mg/L (≈ 0.726 µM) | MIC Staphylococcus aureus (GC 1131) [4]: 1 mg/L (≈ 0.726 µM) | MIC Staphylococcus aureus (GC 1131) [4, 6]: 1 mg/L (≈ 0.726 µM) | MIC Staphylococcus aureus (GC 3051) [4]: 1 mg/L (≈ 0.726 µM) | MIC Staphylococcus aureus (GC 3051) [4, 6]: 1 mg/L (≈ 0.726 µM) | MIC Staphylococcus aureus (GC 3053) [4]: 1 mg/L (≈ 0.726 µM) | MIC Staphylococcus aureus (GC 3053) [4, 6]: 1 mg/L (≈ 0.726 µM) | MIC Staphylococcus aureus (GC 4541) [4]: 1 mg/L (≈ 0.726 µM) | MIC Staphylococcus aureus (GC 4541) [4, 6]: 1 mg/L (≈ 0.726 µM) | MIC Staphylococcus aureus (GC 4542) [4]: 0.5 mg/L (≈ 0.363 µM) | MIC Staphylococcus aureus (GC 4542) [4, 6]: 0.5 mg/L (≈ 0.363 µM) | MIC Staphylococcus aureus-SMITH (GC 4543) ([4]; 18 hours at 35° C.): 1 mg/L (≈ 0.726 µM) | MIC Staphylococcus aureus-SMITH (GC 4543) [4, 6]: 1 mg/L (≈ 0.726 µM) | MIC Staphylococcus aureus (GC 4544) [4]: 1 mg/L (≈ 0.726 µM) | MIC Staphylococcus aureus (GC 4544) [4, 6]: 1 mg/L (≈ 0.726 µM) | MIC Staphylococcus aureus (GC 4545) [4]: 1 mg/L (≈ 0.726 µM) | MIC Staphylococcus aureus (GC 4545) [4, 6]: 1 mg/L (≈ 0.726 µM) | MIC Staphylococcus haemolyticus (GC 4546) [4]: 0.5 mg/L (≈ 0.363 µM) | MIC Staphylococcus haemolyticus (GC 4546) [4, 6]: 0.5 mg/L (≈ 0.363 µM) | MIC Coagulase Negative Staphylococcus (GC 4547) [4]: 1 mg/L (≈ 0.726 µM) | MIC Coagulase Negative Staphylococcus (GC 4547) [4, 6]: 1 mg/L (≈ 0.726 µM) | MIC Coagulase Negative Staphylococcus (GC 4548) [4]: 1 mg/L (≈ 0.726 µM) | MIC Coagulase Negative Staphylococcus (GC 4548) [4, 6]: 1 mg/L (≈ 0.726 µM) | MIC Coagulase Negative Staphylococcus (GC 4549) [4]: 1 mg/L (≈ 0.726 µM) | MIC Coagulase Negative Staphylococcus (GC 4549) [4, 6]: 1 mg/L (≈ 0.726 µM) | MIC Coagulase Negative Staphylococcus (GC 4551) [4]: 1 mg/L (≈ 0.726 µM) | MIC Coagulase Negative Staphylococcus (GC 4551) [4, 6]: 1 mg/L (≈ 0.726 µM) | MIC Coagulase Negative Staphylococcus (GC 6257) [4]: 0.5 mg/L (≈ 0.363 µM) | MIC Coagulase Negative Staphylococcus (GC 6257) [4, 6]: 0.5 mg/L (≈ 0.363 µM) | median effective dose (ED50), Enterococcus faecalis (GC 6189) [5]: 0.46 mg/kg

CC(c1ccccc1)C1NC(=O)CNC(=O)C(CO)NC(=O)C(C(O)C2CNC(=N)N2C2OC(CO)C(O)C(O)C2O)NC(=O)C(C(O)C2CNC(=N)N2)NC(=O)C(Cc2ccc(OC3OC(CO)C(OC4OC5COC(C6CCCC6)OC5C(O)C4O)C(O)C3O)cc2)NC1=O (stereo not drawn) [Example 117, Cyclo[glycyl-β-methylphenylalanyl-O-[4-O-[4,6-O-(cyclopentylethylene)hexopyranosyl]-hexopyranosyl]tyrosyl-3-(2-iminoimidazolidin-4-yl)seryl-3-(3-hexopyranosyl-2-iminoimidazolidin-4-yl)serylseryl]]
MIC Enterococccus avium (GC 4558) [1]: 4 mg/L (≈ 2.91 µM) | MIC Enterococccus faecalis (ATCC 29212) [1]: 2 mg/L (≈ 1.45 µM) | MIC Enterococccus faecalis (GC 2691) [1]: 4 mg/L (≈ 2.91 µM) | MIC Enterococccus faecalis (GC 3059) [1]: 4 mg/L (≈ 2.91 µM) | MIC Enterococccus faecalis (GC 4552) [1]: 4 mg/L (≈ 2.91 µM) | MIC Enterococccus faecalis (GC 4553) [1]: 4 mg/L (≈ 2.91 µM) | MIC Enterococccus faecalis (GC 4554) [1]: 2 mg/L (≈ 1.45 µM) | MIC Enterococccus faecalis (GC 6189) [1]: 2 mg/L (≈ 1.45 µM) | MIC Enterococccus faecium (GC 2243) [1]: 2 mg/L (≈ 1.45 µM) | MIC Enterococccus faecium (GC 4556) [1]: 2 mg/L (≈ 1.45 µM) | MIC Enterococccus faecium (GC 4557) [1]: 2 mg/L (≈ 1.45 µM) | MIC Enterococcus faecalis (GC 2242) [1]: 2 mg/L (≈ 1.45 µM) | MIC Escherichia coli (ATCC 25922) [2]: 64 mg/L (≈ 46.5 µM) | MIC Escherichia coli (GC 4559) [2]: 32 mg/L (≈ 23.3 µM) | MIC Escherichia coli (GC 4560) [2]: 1 mg/L (≈ 0.727 µM) | MIC Streptococcus agalactiae (GC 4564) [3]: 0.25 mg/L (≈ 0.182 µM) | MIC Streptococcus pneumoniae (GC 1894) [3]: <0.06 mg/L | MIC Streptococcus pneumoniae (GC 4565) [3]: 0.12 mg/L (≈ 0.0872 µM) | MIC Streptococcus pneumonine (ATCC 6301) [3]: <0.06 mg/L | MIC Streptococcus pyogenes (GC 4563) [3]: 0.25 mg/L (≈ 0.182 µM) | MIC Staphylococcus aureus (ATCC 29213) [4]: 1 mg/L (≈ 0.727 µM) | MIC Staphylococcus aureus (ATCC 29213) [4, 6]: 1 mg/L (≈ 0.727 µM) | MIC Staphylococcus aureus (GC 1131) [4]: 2 mg/L (≈ 1.45 µM) | MIC Staphylococcus aureus (GC 1131) [4, 6]: 2 mg/L (≈ 1.45 µM) | MIC Staphylococcus aureus (GC 3051) [4]: 1 mg/L (≈ 0.727 µM) | MIC Staphylococcus aureus (GC 3051) [4, 6]: 1 mg/L (≈ 0.727 µM) | MIC Staphylococcus aureus (GC 3053) [4]: 2 mg/L (≈ 1.45 µM) | MIC Staphylococcus aureus (GC 3053) [4, 6]: 2 mg/L (≈ 1.45 µM) | MIC Staphylococcus aureus (GC 4541) [4]: 1 mg/L (≈ 0.727 µM) | MIC Staphylococcus aureus (GC 4541) [4, 6]: 1 mg/L (≈ 0.727 µM) | MIC Staphylococcus aureus (GC 4542) [4]: 1 mg/L (≈ 0.727 µM) | MIC Staphylococcus aureus (GC 4542) [4, 6]: 1 mg/L (≈ 0.727 µM) | MIC Staphylococcus aureus-SMITH (GC 4543) ([4]; 18 hours at 35° C.): 1 mg/L (≈ 0.727 µM) | MIC Staphylococcus aureus-SMITH (GC 4543) [4, 6]: 1 mg/L (≈ 0.727 µM) | MIC Staphylococcus aureus (GC 4544) [4]: 2 mg/L (≈ 1.45 µM) | MIC Staphylococcus aureus (GC 4544) [4, 6]: 2 mg/L (≈ 1.45 µM) | MIC Staphylococcus aureus (GC 4545) [4]: 1 mg/L (≈ 0.727 µM) | MIC Staphylococcus aureus (GC 4545) [4, 6]: 1 mg/L (≈ 0.727 µM) | MIC Staphylococcus haemolyticus (GC 4546) [4]: 1 mg/L (≈ 0.727 µM) | MIC Staphylococcus haemolyticus (GC 4546) [4, 6]: 1 mg/L (≈ 0.727 µM) | MIC Coagulase Negative Staphylococcus (GC 4547) [4]: 1 mg/L (≈ 0.727 µM) | MIC Coagulase Negative Staphylococcus (GC 4547) [4, 6]: 1 mg/L (≈ 0.727 µM) | MIC Coagulase Negative Staphylococcus (GC 4548) [4]: 1 mg/L (≈ 0.727 µM) | MIC Coagulase Negative Staphylococcus (GC 4548) [4, 6]: 1 mg/L (≈ 0.727 µM) | MIC Coagulase Negative Staphylococcus (GC 4549) [4]: 1 mg/L (≈ 0.727 µM) | MIC Coagulase Negative Staphylococcus (GC 4549) [4, 6]: 1 mg/L (≈ 0.727 µM) | MIC Coagulase Negative Staphylococcus (GC 4551) [4]: 2 mg/L (≈ 1.45 µM) | MIC Coagulase Negative Staphylococcus (GC 4551) [4, 6]: 2 mg/L (≈ 1.45 µM) | MIC Coagulase Negative Staphylococcus (GC 6257) [4]: 0.5 mg/L (≈ 0.364 µM) | MIC Coagulase Negative Staphylococcus (GC 6257) [4, 6]: 0.5 mg/L (≈ 0.364 µM) | median effective dose (ED50), Enterococcus faecalis (GC 6189) [5]: 0.38 mg/kg
